The source of these data is patent US11661431B2, “Thienopyrrole compounds” (Gilead Sciences, Inc., priority 2021, dated 2023).

SMILES strings stand for the structures. ≈ marks a conversion by molar mass, not a printed value. Read-outs that look alike come from different tables or passages of the source.

In one series the target is TLR7 (Homo sapiens (Human), UniProt Q9NYK1). Nature of the series: TLR7 human peripheral blood mononuclear cell (PBMC) cell-based assay (GS-986 as agonist; IL-6 and IFNα readout). The conditions noted are these: human PBMCs, TLR7 agonist GS-986 at 400 nM, 6 hours, antagonist potency; read-out: TLR-7 EC50. A digest of the protocol:
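IL-6 and IFNα released into supernatant were quantified by electrochemiluminescence immunoassay. Before that, human PBMCs at 100,000 per well received a 10-point antagonist titration for 1 h, then TLR7 agonist for 6 more hours, all at 37 °C, 5% CO2.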

A further series has as its target TLR8 (Homo sapiens (Human), UniProt Q9NR97). Nature of the series: TLR8 human peripheral blood mononuclear cell (PBMC) cell-based assay (Compound A as agonist; TNFα and IL12p40 readout). To be noted: human PBMCs, TLR8 agonist Compound A at 800 nM, 6 hours, antagonist potency; read-out: TLR-8 EC50.
For series [1], the target named is MATE2-K (multidrug and toxin extrusion protein 2) (Homo sapiens (Human), UniProt Q86VL8). Nature of the series: MATE2-K IC50 assay (14C-metformin uptake in transfected MDCK-II cells). Type of series: in vitro ADME. The method, then:
MATE2-K (multidrug and toxin extrusion protein 2) is expressed in the apical membrane in the kidney and mediates the elimination of compounds to urine. MDCK-II cells were maintained in DMEM with low glucose and 10% FBS. Cells passages up to 40 were seeded at 60K±10K cells/well on 96-well, transwell membrane plates approximately 24 hours before transfection. Transport assays were carried out approximately 48 hours after transfection. […]. The assay plate was then placed in a 37° C. incubator with orbital shaking at approximately 60 RPM for the pre-incubation time of 15 minutes. […]. The assay plate was incubated at 37° C. with orbital shaking at approximately 60 RPM for the incubation time of 5 minutes. At end of the 5-minute incubation, 15 μL of dosing solution was removed from each well containing the compound being tested and measured using LC/MS/MS for dose recovery assessment. The assay wells were then washed four times with ice cold PBS. 60 μL cell extraction solution was added to each well and the plate was incubated at 37° C. with orbital shaking at approximately 60 RPM for the 15 minutes. After this incubation, 30 μL was removed from each well, added to 200 μL scintillation fluid, and counted on a 1450 Microbeta (Perkin-Elmer) to measure the probe substrate uptake. Inhibition potential of the compound being tested was calculated by dividing the transporter-mediated uptake rate in presence of the compound being tested or the reference inhibitor by the transporter-mediated uptake rate in presence of vehicle control and fitted to a sigmoidal function to determine the IC50 values.

Series [2] has as its system cryopreserved hepatocytes. To be noted: human, 1 μM.
Protocol: (§1) Each tested compound was incubated in suspensions of cryopreserved hepatocytes at a final concentration of 1 μM. Vials containing cryopreserved hepatocytes were removed from liquid nitrogen and immediately immersed in a 37° C. water bath. The vials were swirled gently until the contents had thawed. They were then immediately emptied into 48 mL of pre-warmed HT medium in a 50 mL conical tube. Cells remaining in the vial were resuspended with 1.0 mL of pre-warmed HT medium and added to the conical tube. The tube was capped and then gently inverted several times to re-suspend the hepatocytes. The cell suspension was centrifuged at 500×g for 10 minutes at room temperature and the supernatant discarded. The cell pellet was loosened by gently swirling the centrifuge tube. Non-supplemented KHB medium was added to obtain the appropriate target cell density.
(§2) For incubations, aliquots of hepatocyte suspension (250 mL at a concentration of 2×10^6 cells/mL) were added to 250 mL of 2 mM of each tested compound in KHB, in duplicate wells in a 24-well plate. Final concentration in the incubations were 1×10^6 cells/mL and 1 mM of each tested compound. […] A cell-free control was also tested in parallel with the incubations. The incubations were carried out with gentle shaking in a 37° C. incubator under a humid atmosphere of 95% air/5% CO2 (v/v). Aliquots (100 mL) were removed after 0, 1, 3, and 6 hours and added to 200 mL IS/Q. The samples were then placed on a shaker for 10 min followed by centrifugation at 3000×g for 20 min. The supernatant was transferred to a new plate and diluted with 100 μL of water to reduce the organic solvent content and then placed on a shaker for 10 mins. Samples were injected and analyzed using LC-MS/MS.
The next series is described as follows: physchem. The conditions noted are these: 22.8 °C, pH 7.4, aqueous buffer, kinetic from dmso stock.
Series [3] can be described thus: Kinetic solubility at pH 7.4. To be noted: 1×PBS buffer (pH 7.4), 22.8 °C, pH 7.4, aqueous buffer, kinetic from dmso stock.
Protocol: Kinetic Solubility at pH 7.4
(§3) The final DMSO Concentration was 1.0% and maximum theoretical compound concentration is 100 μM. The filter plate was sealed. […] The collection plate was sealed for analysis.
(§4) Filtrates were injected into the nitrogen detector for quantification on Analiza's Automated Discovery Workstation. The results are reported in μg/ml.
(§5) The filtrates were quantified with respect to this calibration curve. The calculated solubility values were corrected for background nitrogen present in the DMSO, and the media used to prepare the samples.
(§6) The 1×PBS buffer (pH 7.4) was prepared by adding 50 mL of phosphate buffered saline solution 10×, PBS (Fisher Bioreagent part number BP399-500) to approximately 450 mL HPLC grade H2O. The volume of the solution was then adjusted to 500 mL for a total dilution factor of 1:10 and a final PBS concentration of 1×. The pH of the final solution was measured and found to be 7.4.
(§7) Each compound tested was analyzed as a trifluoroacetate salt.
Series [4] deals with cryopreserved hepatocytes. Nature of the series: Human hepatic stability in cryopreserved hepatocytes. To be noted: 1×10^6 cells/mL, aliquots at 0, 1, 3 and 6 hours, LC-MS/MS.
Protocol: as §1, §2

Chain of TLR7 (Q9NYK1 27-1049): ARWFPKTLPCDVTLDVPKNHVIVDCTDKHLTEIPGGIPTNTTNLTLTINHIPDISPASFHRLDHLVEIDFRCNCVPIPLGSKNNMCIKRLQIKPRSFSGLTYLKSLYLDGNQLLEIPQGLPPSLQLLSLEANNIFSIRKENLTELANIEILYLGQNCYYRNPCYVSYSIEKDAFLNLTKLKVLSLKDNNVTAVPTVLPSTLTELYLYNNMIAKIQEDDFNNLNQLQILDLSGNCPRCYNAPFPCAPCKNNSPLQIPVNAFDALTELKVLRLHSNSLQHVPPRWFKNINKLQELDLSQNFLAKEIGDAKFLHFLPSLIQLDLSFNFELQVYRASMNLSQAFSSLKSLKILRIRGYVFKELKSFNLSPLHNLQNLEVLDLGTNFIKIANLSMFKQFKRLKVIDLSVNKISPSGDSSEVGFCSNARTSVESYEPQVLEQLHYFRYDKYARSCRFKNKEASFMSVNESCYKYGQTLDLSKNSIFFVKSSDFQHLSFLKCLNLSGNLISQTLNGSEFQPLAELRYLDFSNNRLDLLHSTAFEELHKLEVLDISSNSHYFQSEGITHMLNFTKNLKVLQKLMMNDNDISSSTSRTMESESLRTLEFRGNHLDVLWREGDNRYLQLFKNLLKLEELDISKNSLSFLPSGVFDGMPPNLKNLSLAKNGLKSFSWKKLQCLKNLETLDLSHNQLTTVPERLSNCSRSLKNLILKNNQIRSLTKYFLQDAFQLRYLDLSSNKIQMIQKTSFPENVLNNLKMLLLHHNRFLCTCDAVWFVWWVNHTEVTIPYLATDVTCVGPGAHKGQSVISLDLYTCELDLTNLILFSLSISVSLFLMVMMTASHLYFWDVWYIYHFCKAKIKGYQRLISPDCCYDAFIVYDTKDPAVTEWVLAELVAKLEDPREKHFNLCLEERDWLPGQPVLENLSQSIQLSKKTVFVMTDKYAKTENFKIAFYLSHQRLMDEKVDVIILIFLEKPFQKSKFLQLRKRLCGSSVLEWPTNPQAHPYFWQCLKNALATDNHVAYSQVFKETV
Chain of TLR8 (Q9NR97 27-1041): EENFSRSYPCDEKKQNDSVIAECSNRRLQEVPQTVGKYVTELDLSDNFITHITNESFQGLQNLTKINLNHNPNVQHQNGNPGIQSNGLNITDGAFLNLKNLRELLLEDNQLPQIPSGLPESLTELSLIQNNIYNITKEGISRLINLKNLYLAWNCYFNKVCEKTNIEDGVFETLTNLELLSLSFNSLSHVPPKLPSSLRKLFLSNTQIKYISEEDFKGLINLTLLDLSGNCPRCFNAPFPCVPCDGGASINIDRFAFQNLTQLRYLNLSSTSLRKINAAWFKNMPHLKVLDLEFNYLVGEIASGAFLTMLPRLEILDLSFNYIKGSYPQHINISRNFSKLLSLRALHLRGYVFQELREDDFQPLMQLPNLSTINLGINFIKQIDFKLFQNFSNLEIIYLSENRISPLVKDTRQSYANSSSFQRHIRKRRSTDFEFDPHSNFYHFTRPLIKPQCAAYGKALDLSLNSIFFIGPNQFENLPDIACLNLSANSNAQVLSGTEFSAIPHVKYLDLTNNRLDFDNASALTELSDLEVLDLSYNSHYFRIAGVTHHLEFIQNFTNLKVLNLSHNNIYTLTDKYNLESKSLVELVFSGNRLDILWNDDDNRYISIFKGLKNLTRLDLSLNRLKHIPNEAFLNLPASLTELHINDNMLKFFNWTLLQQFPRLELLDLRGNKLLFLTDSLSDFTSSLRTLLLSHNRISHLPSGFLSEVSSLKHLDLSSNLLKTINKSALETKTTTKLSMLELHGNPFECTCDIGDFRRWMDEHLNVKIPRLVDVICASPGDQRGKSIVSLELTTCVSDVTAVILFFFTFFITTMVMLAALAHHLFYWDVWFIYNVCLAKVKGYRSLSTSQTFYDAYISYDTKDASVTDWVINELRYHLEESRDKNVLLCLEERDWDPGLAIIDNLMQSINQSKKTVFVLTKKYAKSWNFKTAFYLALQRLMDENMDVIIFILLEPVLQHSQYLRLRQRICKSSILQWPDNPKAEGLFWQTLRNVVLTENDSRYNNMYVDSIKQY
Chain of MATE2-K (multidrug and toxin extrusion protein 2) (Q86VL8 other isoform, or with tags, fused parts or gaps, species assumed): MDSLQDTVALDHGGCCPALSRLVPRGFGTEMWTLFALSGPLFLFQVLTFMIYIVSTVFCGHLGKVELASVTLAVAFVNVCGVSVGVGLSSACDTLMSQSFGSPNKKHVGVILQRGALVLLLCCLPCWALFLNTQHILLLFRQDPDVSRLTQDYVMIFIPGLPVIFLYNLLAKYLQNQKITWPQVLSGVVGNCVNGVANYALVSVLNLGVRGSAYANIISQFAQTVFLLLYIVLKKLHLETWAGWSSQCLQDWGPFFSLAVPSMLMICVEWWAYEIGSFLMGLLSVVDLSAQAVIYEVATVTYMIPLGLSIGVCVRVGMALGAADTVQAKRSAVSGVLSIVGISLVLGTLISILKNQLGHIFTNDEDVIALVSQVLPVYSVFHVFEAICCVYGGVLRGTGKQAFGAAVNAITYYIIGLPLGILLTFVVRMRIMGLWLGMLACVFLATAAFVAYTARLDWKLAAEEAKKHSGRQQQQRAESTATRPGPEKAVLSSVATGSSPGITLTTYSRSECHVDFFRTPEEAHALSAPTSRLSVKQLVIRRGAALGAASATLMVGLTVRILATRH
Protocol for physchem: Kinetic Solubility at pH 7.4
as §3, §4, §5, §6, §7

Take `Cc1c(-c2[nH]c3sc([C@@H]4C[C@H]5CC[C@@H](C4)N5CC(N)=O)c(C)c3c2C(C)C)cn2ncnc2c1C` [Example 91]: the 50% effective concentration (EC50) on TLR7 is 0.09 nM; on TLR8, 5.41 nM. The same compound gave an IC50 in series [1] of 7800 nM. In addition, the “Predicted Clearance” value in series [2] was 4 mL/min/kg. The same compound showed a kinetic solubility at 24 h in “physchem” of 2.2 µg/mL (≈ 4.48 µM).
As for `COc1cc(-c2[nH]c3cc(C4CCNCC4)sc3c2C(C)C)cn2ncnc12` [Example B-1, reference compound], the EC50 at TLR7 was found to be 0.3 nM; at TLR8, 2.55 nM. In series [1], this compound returned an IC50 of 1100 nM. The compound also had a solubility (kinetic) at 24 h in series [3] of 22 µg/mL (≈ 55.6 µM). For the same compound, the “Predicted Clearance” value in series [4] was 4.33 mL/min/kg.
